The record followed here is patent US12398153B2, “Spiro compound serving as ERK inhibitor, and application thereof” (D3 BIO (WUXI) CO., LTD., priority 2019, dated 2025).

The target in one data set is ERK2 kinase (Homo sapiens (Human), UniProt P28482). Description: Assay of in vitro kinase activity (33P-ATP filter-binding, MBP substrate). Format: biochemical. On the procedure:
Assay Example 1. Assay of In Vitro Kinase Activity
The ability of compounds to inhibit ERK2 kinase activity was measured.
20 mM Hepes (pH 7.5), 10 mM MgCl2, 1 mM ethylenebis(oxyethylenenitrilo)tetraacetic acid (EGTA), 0.02% Brij35, 0.02 mg/mL bovine serum albumin (BSA), 0.1 mM Na3VO4, 2 mM dithiothreitol (DTT), 1% DMSO.
The assay compound was dissolved in 100% DMSO to prepare a stock solution of specific concentration. The compound was serially diluted in DMSO solution using Integra Viaflo Assist smart pipette.
• 1) The substrate MBP was prepared in freshly prepared reaction buffer; • 2) ERK2 kinase was added to the above-mentioned MBP solution and mixed gently; • 3) The compound dissolved in 100% DMSO was added to the kinase reaction system using ultrasound technology (Echo550; nanoliter range), and the mixture was incubated at room temperature for 20 minutes; • 4) ^33P-ATP (specific concentration of […]) was added to the reaction system, and the reaction was started at this time; • 5) The mixture was incubated at room temperature for 2 hours; • 6) The amount of radioactivity was detected by filter-binding method; • 7) ERK2 kinase activity was calculated as the ratio of the remaining kinase activity in the assay sample to the kinase activity of the control group (treated by DMSO). Curve was fitted using Prism (GraphPad software) and IC50 values were calculated. 5.

For the next data set, the system named is HT29 tumor cells. Description: In vitro cell proliferation inhibition assay (CellTiterGlo). Format: cell-based. On the procedure: Assay Example 2. In Vitro Cell Proliferation Inhibition Assay
The ability of compounds to inhibit the proliferation of HT29 tumor cells was measured.
The assay compound was dissolved in 100% DMSO to prepare 10 mM stock solution.
• 1) UV light of a biological safety cabin was turned on, and 30 minutes were counted down; • 2) In a 37° C. water bath, RPMI1640 medium and trypsin were preheated; • 3) After completion of the UV irradiation, the biological safety cabin was opened. The preheated medium, trypsin and phosphate buffered saline (PBS), etc. were wiped with alcohol and placed in the biological safety cabin; • 4) HT29 cells were removed from the incubator, and the old medium was removed in biological safety cabin. 10 ml of PBS was added. The mixture was shaken gently, and then PBS was removed; • 5) 1.5 ml of preheated 0.25% trypsin was added. The culture vessel was shaken horizontally so that the trypsin evenly covered the cells at the bottom, and placed in an incubator for 2 minutes; • 6) Cell digestion was stopped with complete medium, and the cell suspension was pipetted to homogeneity and counted; • 7) According to the result of cell counting, the density of cell suspension was adjusted to 1500 cells per well, and the cell suspension was seeded at 50 μl per well; • 8) The stock solution of compounds was serially diluted in DMSO solution, and compounds were added to cell plate using Tecan;
9) The compound-added cell plate and CellTiterGlo were equilibrated at room temperature, and 25 microliters of CellTiterGlo was then added to each well. The cell plate was shaken for 1-2 minutes and then allowed to stand for 10 minutes. The signal value was then detected. The data were analyzed using XL-Fit, and the IC50 of each compound was calculated.

A short description of data set [1]: In vivo DMPK assay in mouse. The settings on record: female BALB/c mice; for Oral DNAUC (AUCPO/Dose) / Cmax: 3 mg/kg orally; for clearance / Vd / bioavailability / half-life / Cmax: mouse, plasma; for clearance / Vd: iv, 1 mg/kg intravenously; for clearance: read-out: Cl (clearance rate); for Vd: read-out: Vdss (distribution volume); for bioavailability / Cmax: po; for bioavailability: 1 mg/kg intravenously and 3 mg/kg orally, read-out: F % (oral bioavailability); for half-life: single administration, read-out: T1/2 (half-life) (converted); for Cmax: read-out: Cmax (maximum concentration). The text has this:
Assay Example 3. Assay of In Vivo DMPK
In vivo DMPK assay in mouse
Female BALB/c mice were used as assay animals to determine the blood concentration of compounds and evaluate the pharmacokinetic behavior after a single administration.
Eight healthy adult female BALB/c mice were selected, wherein 4 mice were in the intravenous injection group and 4 mice were in the oral group. The vehicle in the intravenous injection group was 5% DMSO+95% (20% HP-β-CD). The compound to be assayed was mixed with an appropriate amount of vehicle for intravenous injection, vortexed and sonicated to prepare a clear solution of 0.5 mg/mL. The clear solution was filtered by a microporous membrane, and then ready for use. The vehicle in the oral group was 5% DMSO+95% (20% HP-β-CD). The compound to be assayed was mixed with the vehicle, vortexed and sonicated to prepare a solution of 0.3 mg/mL. Mice were administered 1 mg/kg intravenously or 3 mg/kg orally, and then whole blood was collected for a certain period. Plasma was prepared. The drug concentration was analyzed by LC-MS/MS method, and the pharmacokinetic parameters were calculated by Phoenix WinNonlin software (Pharsight, USA).
Note: DMSO: dimethyl sulfoxide; HP-β-CD: hydroxypropyl-β-cyclodextrin.

Data set [2] deals with human colon cancer HCT-116 cells. The data set can be described thus: In vivo efficacy, subcutaneous xenograft tumor of human colon cancer HCT-116 cells in BALB/c nude mouse. Conditions: 15 mg/kg, PO, QD. On the procedure:
Assay Example 4. Assay of In Vivo Efficacy of Subcutaneous Xenograft Tumor of Human Colon Cancer HCT-116 Cells in BALB/c Nude Mouse Model
The anti-tumor effect of WX007 was evaluated using a subcutaneous xenograft tumor model of human colon cancer HCT-116 cells in nude mouse.
• Species: mouse • Strain: BALB/c nude mouse • Age: 6-8 weeks old • Gender: female • Weight: 17-23 grams • Vendor: Laboratory Animal Management Department, Shanghai Institute for Biomedical and Pharmaceutical Technologies • Animal certificate number: 20180006020214 3. Assay Procedure: • 1) Assay cells and culture: Human colon cancer HCT-116 cells were cultured in monolayer in vitro. […] When the cell saturation was 80%-90% and the amount reached the requirement, the cells were harvested, counted, and inoculated; • 2) Tumor tissue inoculation and grouping: 0.2 mL (5×10^6) of HCT-116 cells were subcutaneously inoculated into the right armpit of each mouse. […]
• 3) Daily observation of assay animals: The development of this assay protocol and any modifications were evaluated and approved by the Institutional Animal Care and Use Committee (IACUC). […] Animals were monitored daily for health and death. […] The compound was formulated once a week. • 5) Tumor measurement and assay indicator: • a) Tumor diameter was measured twice a week with a vernier caliper. […]
On the technique in general: Xenograft models place foreign cells or tissue in a host animal.

Structures are written as SMILES. Like-named read-outs stand apart in the source and are kept apart here.

Sequence of ERK2 kinase (P28482 whole entry): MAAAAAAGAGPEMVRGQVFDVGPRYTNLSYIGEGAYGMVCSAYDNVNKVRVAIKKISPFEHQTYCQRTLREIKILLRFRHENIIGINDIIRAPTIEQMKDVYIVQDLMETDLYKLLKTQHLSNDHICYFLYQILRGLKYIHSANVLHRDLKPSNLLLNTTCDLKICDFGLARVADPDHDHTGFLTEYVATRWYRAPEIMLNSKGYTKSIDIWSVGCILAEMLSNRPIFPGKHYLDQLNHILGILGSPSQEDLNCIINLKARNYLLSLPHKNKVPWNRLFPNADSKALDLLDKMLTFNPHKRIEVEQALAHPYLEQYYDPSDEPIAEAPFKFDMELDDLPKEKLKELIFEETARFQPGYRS

A word on the IC50: it is the concentration needed to halve the response being measured. Higher therefore signals lower potency. `O=C1c2nc(-c3ccnc(NC4CCOCC4)n3)sc2C2(CCOCC2)N1Cc1cccc(Cl)c1` [WX003]: the IC50 stood at 0.29 nM on ERK2 kinase and 69 nM in the data set on HT29 tumor cells (Homo sapiens, HT-29).

On to `Cn1nccc1Nc1nccc(-c2nc3c(s2)C2(CCOCC2)N(Cc2cccc(Cl)c2)C3=O)n1` [WX002], for which the half-maximal inhibitory concentration (IC50) on ERK2 kinase was 0.4 nM; in the data set on HT29 tumor cells (Homo sapiens, HT-29), 73 nM.

Take `Cn1nccc1Nc1nccc(-c2nc3c(s2)C2(COC2)N(Cc2cccc(Cl)c2)C3=O)n1` [WX005]: the IC50 is 0.36 nM at ERK2 kinase and 49 nM in the data set on HT29 tumor cells (Homo sapiens, HT-29).

The clearance is a measure of how efficiently the substance is removed, as volume per time. What is called bioavailability is the share of a dose that reaches the circulation, judged against a reference dose that is usually intravenous. For the compound `Cc1cnc(Nc2ccnn2C)nc1-c1nc2c(s1)C1(COC1)N(Cc1cccc(F)c1)C2=O` [WX006], the IC50 at ERK2 kinase amounted to 0.94 nM. For the same compound, in data set [1], the “Oral DNAUC (AUCPO/Dose)” value is listed as 1356 nM · h/mpk, the clearance was determined as 1.03 L/h/kg, the Vd was determined as 1.7 L/kg and the bioavailability turned out to be 70%. For the same compound, in data set [1], the half-life was 1.4 h and the Cmax is 1.4 µM. The same compound displayed an IC50 with HT29 tumor cells (Homo sapiens, HT-29) of 14 nM.

On ERK2 kinase, `Cc1cnc(Nc2ccnn2C)nc1-c1nc2c(s1)C1(COC1)N(Cc1cccc(Cl)c1)C2=O` [WX007] gave an IC50 of 0.48 nM. In addition, in data set [2] (18th day, HCT-116 xenograft in nude mouse), the “TGI (inhibition rate of tumor growth)” value is listed as 62%. Also, the “Body weight of assay animals” value in data set [2] (to the 18th day) is listed as “did not decrease significantly”. Moreover, in data set [1], the “Oral DNAUC (AUCPO/Dose)” value was 1086 nM · h/mpk, the clearance is 0.864 L/h/kg, the Vd is 1.7 L/kg and the bioavailability was 46%. In addition, in data set [1], the half-life was 1.3 h and the Cmax is 0.595 µM. It took 11 nM to reach half-maximal inhibition in the data set with HT29 tumor cells (Homo sapiens, HT-29) (IC50).

In the case of `Cn1nccc1Nc1nccc(-c2nc3c(s2)[C@@]2(CCOC2)N(Cc2cccc(Cl)c2)C3=O)n1` [WX001A], the IC50 at ERK2 kinase stood at 0.31 nM; in the data set with HT29 tumor cells it was 21 nM.

With `Cn1nccc1Nc1nccc(-c2nc3c(s2)C2(COC2)N(Cc2cccc(F)c2)C3=O)n1` [WX004], the IC50 stood at 1.1 nM on ERK2 kinase and 125 nM in the data set on HT29 tumor cells (Homo sapiens, HT-29).
